These results are taken from patent US4613666A, “Neplanocin A derivatives” (Toyo Jozo Kabushiki Kaisha, priority 1980, dated 1986).

Converted amounts (≈) assume the structure as drawn.

One experiment has as its system L 5178 Y cells. As to the kind of experiment: growth-inhibitory activity on mouse lymphoma L 5178 Y cells (MIC). As to conditions: 5×10^4 /ml, Fischer's medium with 10% bovine serum, 37° C., 22 hours, phenol red color change, read-out: MIC (minimum inhibitory concentration on cell growth). Format: cell-based. The method, then:
The growth-inhibitory activities of compound [I] of the present invention on L 5178 Y cells are shown below. (1) Test method:
A test sample (0.3 ml) dissolved in a medium [bovine serum (10%) in Fischer's medium] is added to a mouse lymphoma L 5178 Y cells suspension (2.7 ml, 5×10^4 /ml cells), and the mixture is incubated at 37° C. for 22 hours. Cell-growth is observed by checking the color change of phenol red in the medium. The minimum inhibitory concentration (MIC) of the substance on cell growth is defined by observing apparent growth inhibition as compared with that of control.
For `Nc1ncnc2c1ncn2[C@@H]1C=C(CO)[C@@H](O)[C@@H]1Cl` [R1=H, R4=Cl, R5=H, R6=H, 2'-(R)-chloro-2'-deoxy neplanocin A], the MIC came out at 20 µg/mL (≈ 71 µM).

In the case of `[N-]=[N+]=N[C@H]1[C@H](O)C(CO)=C[C@H]1n1cnc2c(N)ncnc21` [R1=H, R4=N3, R5=H, R6=H, 2'-(R)-azide-2'-deoxyneplanocin A], the MIC amounted to 100 µg/mL (≈ 347 µM).

In the case of `Nc1ncnc2c1ncn2[C@@H]1C=C(CO)[C@@H](O)[C@@H]1I` [R1=H, R4=I, R5=H, R6=H, 2'-(R)-iodo-2'-deoxy neplanocin A], the MIC was 4 µg/mL (≈ 10.7 µM).

As for `Nc1ncnc2c1ncn2[C@@H]1C=C(CO)[C@H]2OC(c3ccccc3)O[C@H]21` (some centres unmarked) [2',3'-Obenzylidene neplanocin A, 2',3'-O-benzylidene neplanocin A], the MIC is 4 µg/mL (≈ 11.4 µM).

Take `CC(=O)OCC1=C[C@@H](n2cnc3c(N)ncnc32)[C@H](OC(C)=O)[C@@H]1OC(C)=O` [2',3',5'-Otriacetyl nephlanocin A, 2',3',5'-O-triacetyl neplanocin A]: the MIC stood at 0.8 µg/mL (≈ 2.05 µM).

In the case of `Nc1ncnc2c1ncn2[C@@H]1C=C(CO)[C@@H](O)[C@@H]1N` [R1=H, R4=NH2, R5=H, R6=H, 2'-(R)-amino-2'-deoxy neplanocin A acetate], the MIC stood at 4 µg/mL.

As to `CC(=O)OCC1=C[C@@H](n2cnc3c(N)ncnc32)[C@@H](Cl)[C@@H]1OC(C)=O` [R1=H, R4=Cl, R5=Ac, R6=Ac, 2'-(R)-chloro-2'-deoxy-3 '-O,5'-O-diacetyl neplanocin A], the MIC worked out at 100 µg/mL (≈ 273 µM).

As for `O=C(OCC1=C[C@@H](n2cnc3c(N(C(=O)c4ccccc4)C(=O)c4ccccc4)ncnc32)[C@H](O)[C@@H]1O)c1ccccc1` [N^6,N^6,5'-Otribenzoyl neplanocin A, N^6,N^6 5'-O-tribenzoyl neplanocin A], the MIC turned out to be 0.16 µg/mL (≈ 0.278 µM).

Consider `Nc1ncnc2c1ncn2[C@@H]1C=C(CO)[C@@H](O)[C@@H]1Br` [R1=H, R4=Br, R5=H, R6=H, 2'-(R)-bromo-2'-deoxy neplanocin A], for which the MIC is 4 µg/mL (≈ 12.3 µM).

Take `Nc1ncnc2c1ncn2[C@@H]1C=C(CO)[C@@H](O)C1` [R1=H, R4=H, R5=H, R6=H, 2'-deoxy neplanocin A]: the MIC turned out to be 4 µg/mL (≈ 16.2 µM).

With `O=C(Nc1ncnc2c1ncn2[C@@H]1C=C(CO)[C@@H](O)[C@@H]1I)c1ccccc1` [R1=COPh, R4=I, R5=H, R6=H, N^6-benzoyl-2'-(R)-iodo-2'-deoxy neplanocin A], the MIC stood at 100 µg/mL (≈ 210 µM).

On to `O=C(Nc1ncnc2c1ncn2[C@@H]1C=C(COC(=O)c2ccccc2)[C@@H](O)[C@H]1O)c1ccccc1` [N^6,5'-Odibenzoyl neplanocin A, N^6,5'-O-dibenzoyl neplanocin A], for which the MIC came out at 0.16 µg/mL (≈ 0.339 µM).

Tested on in a further experiment: not given
Assay: not given
Conditions: earlier applications cited; cited from earlier work.
Regarding `Nc1ncnc2c1ncn2[C@@H]1C=C(CO)[C@@H](O)[C@H]1O` [Neplanocin A], the antitumor activity result is “antitumor activity”.

The test system of a further experiment is plant pathogenic fungi.
Assay: not given
As to conditions: earlier applications cited; cited from earlier work.
With `Nc1ncnc2c1ncn2[C@@H]1C=C(CO)[C@@H](O)[C@H]1O` [Neplanocin A], the “inhibitory action for plant pathogenic fungi” value is on record as “inhibitory action for plant pathogenic fungi”.
